# Measurements taken from patent US11679110B2, “Methods of treating disorders using CSF1R inhibitors” (Deciphera Pharmaceuticals, LLC, priority 2018, dated 2023).
# Entries after “also recorded” stand apart in the source; their conditions may differ. Read-outs that look alike come from different tables or passages of the source.
# Experiments:
# [1] = test system: M-NFS-60 cells; assay: cells; format: cell-based; conditions: Mus musculus
# [2] = test system: TGCT or DTGCT; conditions: cited from earlier work
# [3] = human, in vivo, 800 mg
# [4] = rat, 4-week, cited from earlier work
# [5] = rat, six-month, cited from earlier work
# [6] = human; recommended dose 800 mg daily; cited from earlier work
# [7] = clinical; conditions: human, in vivo, 800 mg
smiles,measurement,setting,value
FC(F)(F)c1ccc(CNc2ccc(Cc3c[nH]c4ncc(Cl)cc34)cn2)cn1 [pexidartinib],IC50,"[1]; read-out: average IC50, inhibition of M-NFS-60 cell proliferation, 10 ng/mL CSF1",15.7 nM
same,IC50,"[1]; read-out: average IC50, inhibition of M-NFS-60 cell proliferation, 1,000 ng/mL CSF1",59.6 nM
same,ORR,"[2]; ENLIVEN phase 3 randomized trial, maintenance dose 400 mg twice daily",39%
same,overall response rate (ORR),"[2]; TGCT or DTGCT patients, 1000 mg daily, phase 2 clinical study",52%
same,maximum tolerated dose,"[2]; TGCT patients, clinical use",400 mg twice daily
same,liver injury / hepatotoxicity,[2]; patients,mixed or cholestatic hepatotoxicity; also recorded: black box warning of hepatotoxicity
same,maximum tolerated dose and chosen phase 2 dose,[2]; patients,1000 mg per day
same,AUC0-24 clinical exposure (estimated from label AUC0-12),[3],154.93 µg·h/mL
same,NOAEL,"[4]; 20, 60, 200 mg/kg/day oral gavage",could not be established
same,liver enzymes,[4]; all dose groups,increased liver enzymes
same,liver histology finding,[4]; all dose groups,dose-related hepatocellular centrilobular hypertrophy
same,deaths of main study animals due to treatment-related immunocompromise,[5]; 60 mg/kg daily,3
same,liver findings in female rats,"[5]; 60 mg/kg, female",biliary cysts and increased gamma-glutamyl transferase (GGT) levels
same,liver findings,[5]; ≥20 mg/kg,hemosiderin deposition and necrotizing inflammation
same,AUC0-12 clinical exposure cited in the label,[6],77.465 µg·h/mL
same,AUC(0-t),[7],155 µg·h/mL
